The target of this assay is δPKC (Homo sapiens, UniProt Q05655). The assay can be described thus: AGILE label-free binding assay, δPKC to immobilized peptide.

Where no end group is shown, it is not given here.

Chain of δPKC (Q05655 whole entry): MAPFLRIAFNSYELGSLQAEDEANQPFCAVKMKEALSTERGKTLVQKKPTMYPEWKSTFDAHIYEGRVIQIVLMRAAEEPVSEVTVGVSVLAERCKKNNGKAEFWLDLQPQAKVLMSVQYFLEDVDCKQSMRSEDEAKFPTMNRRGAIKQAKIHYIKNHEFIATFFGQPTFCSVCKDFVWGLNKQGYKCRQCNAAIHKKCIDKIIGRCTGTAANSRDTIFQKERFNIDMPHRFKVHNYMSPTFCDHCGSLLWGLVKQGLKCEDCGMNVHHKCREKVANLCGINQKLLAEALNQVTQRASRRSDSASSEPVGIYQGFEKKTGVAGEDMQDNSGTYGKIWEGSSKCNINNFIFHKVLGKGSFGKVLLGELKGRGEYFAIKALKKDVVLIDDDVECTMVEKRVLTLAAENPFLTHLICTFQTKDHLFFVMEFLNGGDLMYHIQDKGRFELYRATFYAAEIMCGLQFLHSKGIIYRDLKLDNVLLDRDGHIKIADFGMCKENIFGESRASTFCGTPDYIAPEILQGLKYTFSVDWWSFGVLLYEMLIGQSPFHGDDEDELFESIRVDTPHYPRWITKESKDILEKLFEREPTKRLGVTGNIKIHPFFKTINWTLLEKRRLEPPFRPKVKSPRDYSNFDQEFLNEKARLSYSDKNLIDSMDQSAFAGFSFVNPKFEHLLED

ALSAER [ψPDK analog] yielded a 50% inhibitory concentration (IC50) of 1250 nM and a dissociation constant (Kd) of 1250 nM.

Regarding ALSTER [ψPDK], the half-maximal inhibitory concentration (IC50) was 53 nM and the dissociation constant Kd is 53 ± 19 nM.

What is called IC50 is the concentration needed to halve the response being measured. By Kd is commonly meant the concentration at which binding is half-saturated. The low end stands for higher affinity, the high end for lower affinity.

The values above are taken from publication PMC5065007 (Journal of the American Chemical Society, 2016).
